In one series the test system is rat. In words: Spontaneous locomotor activity under novel environments. It is filed as in vivo. To be noted: data not shown.
Series [1] has as its system Wistar rats. In words: Measurement of alcohol intake by limited access paradigm. To be noted: data not shown. Type of series: in vivo. As to the method:
Measurement method: An impulsive behavior of cravings for drinking alcohol was evaluated as follows by reference to the method of Sinclair et al. (Alcohol 1992; 9:441-44 and Alcohol & Alcoholism 2001; 36:2-10). First, Wistar rats (male) were allowed to freely drink 10% aqueous ethanol solution and tap water for several weeks under isolated rearing. After the ethanol intake of each animal became stable, limited access paradigm allowing ethanol intake only for 1 hr per day was started, and the ethanol intake in 1 hr was measured every day. The ethanol intake was calculated from the results of weight measurement of a water supply bottle filled with 10% aqueous ethanol solution immediately before the start of the limited access paradigm and immediately after the completion of the limited access paradigm. […] The limited access paradigm test was performed during 9:00 AM-4:00 PM. […]
The significance level of the test was set to 5%. […] The difference between an average ethanol intake in the limited access paradigm for 4 days immediately before drug evaluation and an average ethanol intake in the limited access paradigm for 4 days during the drug administration period was calculated for every animal, and analyzed by two-way factorial analysis of variance by using the presence or absence of brexpiprazole and the presence or absence of nalmefene as factors.

Series [2] relates to Wistar rats. To be noted: report Alcohol & Alcoholism 2001; 36: 2-10; present dose 0.04 mg/kg; cited from earlier work.
Where [3] appears, read: brexpiprazole alone 0.01 mg/kg orally.
The mark [4] stands for this setting: nalmefene hydrochloride monohydrate alone 0.04 mg/kg subcutaneously.

This is an account of results in patent US11642341B2, “Combination of brexpiprazole and nalmefene and use thereof for treating substance-related disorders” (OTSUKA PHARMACEUTICAL CO., LTD., priority 2014, dated 2023).

Counter-ions that a name gives are not always drawn.

For `O=c1ccc2ccc(OCCCCN3CCN(c4cccc5sccc45)CC3)cc2[nH]1` [brexpiprazole, 7-[4-(4-benzo[b]thiophen-4-yl-piperazin-1-yl)butoxy]-1H-quinolin-2-one], the “influence on spontaneous locomotor activity under novel environments, drug by itself” value in the series with rat (setting [3]) is “does not, by itself, influence”. In the series on Wistar rats [1] (setting [3]), the “influence on ethanol intake, drug by itself” value is reported as “does not, by itself, influence”.

`C=C1CC[C@@]2(O)[C@H]3Cc4ccc(O)c5c4[C@@]2(CCN3CC2CC2)[C@H]1O5` [nalmefene hydrochloride monohydrate]: the “influence on spontaneous locomotor activity under novel environments, drug by itself” value in the series on rat (setting [4]) is “does not, by itself, influence”. Moreover, in the series on Wistar rats [1] (setting [4]), the “influence on ethanol intake, drug by itself” value is “does not, by itself, influence”.

On to `C=C1CC[C@@]2(O)[C@H]3Cc4ccc(O)c5c4[C@@]2(CCN3CC2CC2)[C@H]1O5` [nalmefene, 17-(cyclopropylmethyl)-4,5α-epoxy-6-methylenemorphinan-3,14-diol], for which the “dose at which nalmefene used singly shows effects in this evaluation system, relative to the dose used in the present test” value in the series on Wistar rats [2] is recorded as “about 10 times”.
